Test results as given in patent US20250170172A1, “METHODS FOR TREATING LENTIVIRUS INFECTION” (Jericho Sciences, LLC, priority 2022, published 2025).

Experiments:
[1] = tested on: Japanese encephalitis virus (JEV); details: cited from earlier work
[2] = tested on: dengue virus; details: cited from earlier work
[3] = tested on: SIVmac251; test: Plasma viremia by TAQMAN RT-PCR in SIVmac251-infected Rhesus macaques; type: in vivo, Rhesus macaque (Macaca Mulatta); details: monotherapy 3.0 mg/kg 3 times weekly, subcutaneous
Experimental: Twenty-four specific pathogen-free (SPF), all male, Rhesus macaque (Macaca Mulatta) nonhuman primates (NHPs) of Indian origin were utilized for this study. The animals were tested to be free from simian type D retrovirus (SRV), simian immunodeficiency virus (SIV), simian T-cell lymphotropic/leukemia virus (STLV) and Cercopithecine herpesvirus 1 (CHV-1) at study initiation. All animals were pre-screened as negative for the protective MHC class I alleles Mamu-A*01, Mamu-B*08, and Mamu-B*17 since these alleles are associated with elite control of SIV infection. All animal studies were approved by the appropriate Institutional Animal Care and Use Committee (IACUC).
Inoculation of NHPs with SIVmac251. […] Each animal was subsequently monitored.
The twenty-four (24) SIVmac251-infected Rhesus macaques were divided into four groups: (1) sham-treated controls (vehicle only); (2) FX101-treated; (3) combination antiretroviral therapy (cART)-treated and (4) FX101 plus cART-treated. […] Comparative evaluations between groups were determined to evaluate whether FX101 alone and/or in combination with cART safely reduces virus in plasma, CSF, tissue reservoirs and/or sanctuary sites. […] Comparative longitudinal clinical measures were assessed to evaluate the safety profile. […]
Determination of plasma and CSF Viral RNA Levels. The amount of RNA copies per ml was determined using a TAQMAN assay. […]

[4] = tested on: SIV mRNA positive cells; test: SIV mRNA positive cell frequency in lymph node and spleen by FISH; type: in vivo, Rhesus macaque (Macaca Mulatta); details: FX-only treatment group
Experimental: The higher Tier 2 antibody productions indicated differences in germinal center capacities, so we performed (blinded) histochemical evaluation of axillary lymph node and spleen tissues collected at necropsy. Tissues were evaluated using fluorescent in situ hybridization (FISH) probes for each, IL-21 mRNA and SIV mRNA. Cells (stained with 4′,6-diamidino-2-phenylindole) were designated either positive or negative for each hybridization label. The frequency of positive cells was determined by dividing the positive signal by the total number of cells in the field of vision. […]
(§1) Quantification of fluorescent immunohistochemistry and in situ hybridization. […] Whole slide images were analyzed using HALO image analysis software v3.1 (Indica Labs, Albuquerque, NM). […] When quantifying SIV infected cells, areas with a dendritic pattern were excluded from the analysis. […] Comparison of treatment groups was assessed using a Mann-Whitney Test (2-tailed, nonparametric)
The frequency of SIV positive cells per million cells was determined using fluorescent in situ hybridization (FISH) as described in Example 8. […]

[5] = Safety assessment in SIV-infected Rhesus macaques (blood counts, clinical chemistries, flow cytometry, necropsy, histochemistry); type: in vivo, Rhesus macaque (Macaca Mulatta); details: 3 mg/kg, 3 times weekly for up to 24 weeks, subcutaneous
Experimental: Antiviral treatments were initiated at 10 weeks post-infection after the initial inflammatory response had subsided. All drug treatments were administered subcutaneously to avoid repeated sedations of the animals. The control animals received vehicle only (10% dimethylsulfoxide in phosphate buffered saline, DMSO/PBS). The dual-treated group received equal dosing amounts and frequencies of FX101 (3.0 mg/kg, 3× weekly) and cART (daily); the cART treatment group received two nucleo(t/s)ide RT inhibitors (NRTIs), emtricitabine (FTC, 50 mg/kg) and tenofovir disoproxil fumarate (TDF, tenofovir prodrug, 5.1 mg/kg) plus one integrase strand transfer inhibitor (INSTI), dolutegravir (DTG, 2.5 mg/kg). […] Therapeutic cART treatments were administered for up to 24 total weeks, with animals followed for up to 27 weeks post cART cessation (˜1 year post infection). All animals were monitored daily for signs of adverse events during the study.
Safety was assessed by complete blood chemistries, clinical chemistries, flow cytometry, gross necropsies and histochemical tissue imaging. There were no apparent drug-related adverse events between treatment arms across these measures over the study timeline. However, since all the animals were SIV-infected, measures and observations outside of normal healthy expected ranges occurred. […]

[6] = tested on: zinc binding domain of nucleocapsid protein peptide; test: MALDI-TOF competitive binding to nucleocapsid protein peptide in presence of zinc; parameters: species or system HIV; details: equimolar ~2×10^−4 Molar in saline, with and without zinc
Experimental: FIG. 1 illustrates in vitro competitive binding of FX101 to the zinc binding domain of nucleocapsid protein peptide in the presence of zinc ions using Matrix-assisted laser desorption ionization (MALDI)—time of flight (TOF) analyses. Mixtures were prepared in equimolar concentrations of ˜2×10^−4 Molar solutions in saline. […] Mass Spectrometer: Voyager DE STR (Applied Biosystems). Software: Voyager Instrument Control Panel (v 5.1) and Data Explorer (v4.0) Instrument Method: (a) ACTH_Reflector_Aug24_2010; Accelerating voltage 25000; Grid voltage 63.8%; Mirror voltage ratio1.12, Laser Rep Rate 20.0 Hz Band width 500: Vertical Scale 50, Bin size 0.5: Acquisition mass range 800-4000 Da; Delay 155, 165, or […], Laser Intensity 1480-1590. (b) angiotensine.bic, 75 nsec delay time Calibration: C1 or C2 standards in DHB matrix. Matrix: DHB (Laser BioLabs, France), 10 mg/ml in (a) 50% acetonitrile/50% water-0.1% TFA/50% water, no TFA, and (b) 50% ethanol/50% water, no TFA. Spotted: 0.5 μL sample.
The nucleocapsid protein (NC) of HIV is an established but elusive therapeutic target for HIV infection. Currently available antiretroviral drugs predominately target viral enzymes involved in replication, including reverse transcriptase, integrase and protease. Recently, a new drug class targeting the structural capsid protein has been approved. […]

[7] = tested on: IL-21 mRNA positive cells; test: IL-21 mRNA positive cell frequency in lymph node and spleen by FISH; type: in vivo, Rhesus macaque (Macaca Mulatta); details: FX-only treated animals; lymph nodes and spleen
Experimental: The higher Tier 2 antibody productions indicated differences in germinal center capacities, so we performed (blinded) histochemical evaluation of axillary lymph node and spleen tissues collected at necropsy. Tissues were evaluated using fluorescent in situ hybridization (FISH) probes for each, IL-21 mRNA and SIV mRNA. Cells (stained with 4′,6-diamidino-2-phenylindole) were designated either positive or negative for each hybridization label. The frequency of positive cells was determined by dividing the positive signal by the total number of cells in the field of vision.
Immunohistochemistry and in situ hybridization of lymph node and spleen tissues collected at termination. Five μm formalin fixed paraffin embedded tissues sections were mounted on Superfrost Plus Microscope slides, baked overnight at 60° C. and passed through xylene, graded ethanol, and double distilled water to remove paraffin and rehydrate tissue sections. A microwave was used for heat induced epitope retrieval (HIER). […]
as §1

SMILES | inhibition of Japanese encephalitis virus (JEV) infection [1] | inhibition of dengue virus infection [2] | direct virus replication inhibition, plasma viremia during the treatment period [3] | frequencies of virus in spleen and lymph nodes relative to the cART group [4] | adverse events / tolerability [5] | binding to the nucleocapsid protein zinc domain peptide [6] | frequencies of IL-21 mRNA positive cells versus control animals [7]
c1ccc(CN(CCN(Cc2ccccn2)Cc2ccccn2)Cc2ccccn2)nc1 [TPEN, N,N,N′,N′-tetrakis(2-pyridinylmethyl)-1,2-ethanediamine] | inhibits dengue virus and Japanese encephalitis virus (JEV) infection | inhibits dengue virus | – | – | – | – | –
[NH2][Pt]([NH2])([Cl])([Cl])([Cl])[N+](=O)[O-] [FX101] | – | – | no apparent direct virus replication inhibiting activities | very low frequencies of virus in both spleen and lymph nodes | safe and well tolerated | binds to the peptide, even in the presence of zinc | higher than for the control animals in both lymph nodes and spleen
